Test results as given in US20090203725A1, “Androgen Receptor Modulator Compounds and Methods” (priority 2005, published 2009).
Where two headings read alike, the source gives them in different places.

Molecular target: T1, hAR (Homo sapiens, UniProt P10275)
T1 construct: expressed in transfected cells; host or cells: COS-1 cells transiently transfected with pRShAR, pRS-β-Gal and pGEM
T1 sequence (P10275 1-920): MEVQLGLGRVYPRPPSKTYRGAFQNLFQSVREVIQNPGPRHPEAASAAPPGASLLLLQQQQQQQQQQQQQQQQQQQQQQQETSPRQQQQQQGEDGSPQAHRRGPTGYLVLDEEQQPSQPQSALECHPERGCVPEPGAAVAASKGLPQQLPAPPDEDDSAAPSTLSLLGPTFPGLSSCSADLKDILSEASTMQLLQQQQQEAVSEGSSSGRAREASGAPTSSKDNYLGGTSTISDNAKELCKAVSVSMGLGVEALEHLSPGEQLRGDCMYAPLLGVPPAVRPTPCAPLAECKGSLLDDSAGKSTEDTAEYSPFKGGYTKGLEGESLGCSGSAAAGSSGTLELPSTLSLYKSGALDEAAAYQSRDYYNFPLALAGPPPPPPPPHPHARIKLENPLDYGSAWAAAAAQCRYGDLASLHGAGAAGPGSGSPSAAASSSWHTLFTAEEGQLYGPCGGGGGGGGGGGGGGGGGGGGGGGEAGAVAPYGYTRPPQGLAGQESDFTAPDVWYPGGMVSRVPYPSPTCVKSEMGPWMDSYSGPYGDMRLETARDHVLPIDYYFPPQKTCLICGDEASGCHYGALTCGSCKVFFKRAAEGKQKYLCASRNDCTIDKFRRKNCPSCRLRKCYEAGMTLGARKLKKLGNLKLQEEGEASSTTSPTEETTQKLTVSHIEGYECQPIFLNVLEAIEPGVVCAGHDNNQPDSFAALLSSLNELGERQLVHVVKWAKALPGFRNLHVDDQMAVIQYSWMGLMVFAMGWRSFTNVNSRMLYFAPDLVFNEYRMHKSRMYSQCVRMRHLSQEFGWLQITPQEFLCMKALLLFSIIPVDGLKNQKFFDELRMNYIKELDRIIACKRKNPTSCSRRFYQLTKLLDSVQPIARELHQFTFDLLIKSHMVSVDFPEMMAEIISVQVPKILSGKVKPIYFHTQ
Test: IR Binding Assay: displacement of 3H-DHT in COS-1 cells transfected with pRShAR
Experimental: COS-1 cells in 96-well microtiter plates containing DMEM-10% FBS were transfected using standard techniques with plasmids pRShAR (2 ng/well), pRS-β-Gal (50 ng/well) and pGEM (48 ng/well). Six hours after transfection, media was removed, the cells were washed with PBS and fresh media was added. Twenty-four hours later, the media was changed to serum free DMEM and the cells were incubated for twenty-four hours.
Three replicates were used for each sample.
After three hours at 37° C., aliquots of media from each well of both test plates and control plates were removed to estimate the amount of free ^3H-DHT. The remaining media was removed, the cells were washed three times with PBS, and cells were lysed with a Triton X-100-based buffer. The lysates were assayed for amount of bound ^3H-DHT and β-Gal activity using a scintillation counter and spectrophotometer, respectively.
Determination of Kd for ^3H-DHT. Total binding was defined as binding of ^3H-DHT in the absence of 100 molar excess of unlabeled DHT in the control plate. […] binding was defined as binding of ^3H-DHT in the presence of 100 molar excess of unlabeled DHT in the control plate. Specific binding was defined as the difference between the total binding and the nonspecific binding, normalized by the β-Gal rate. Specific binding was used in Scatchard analysis to determine the Kd for ^3H-DHT.
Test Compounds. To determine binding affinity (Ki) for test compounds, the data from each concentration of test compound was calculated as a percentage of the signal for the sample with no test compound. […] The Ki values were determined by the Cheng-Prusoff equation, where: […]

[1] = 1 nM 3H-DHT, transfected COS-1 cells, 3 hours at 37° C., Cheng-Prusoff, read-out: Binding to hAR (Ki value ranges)

SMILES	Ki [1] [nM]	Ki [nM]
COc1cccc2c1-c1ccc3[nH]c(=O)cc(C)c3c1CO2 [Compound 109, 10-Methoxy-4-methyl-1H,5H-6-oxa-1-azachrysen-2-one]	> 50	
COc1cccc2c1-c1ccc3[nH]c(=O)cc(C)c3c1C(=O)OC2 [Compound 123, 4-Methoxy-10-methyl-7,13-dihydro-12-oxa-7-aza-benzo[3,4]cyclohepta[1,2-α]-naphthalene-8,11-dione]	> 50	
COc1cccc2c1-c1ccc3[nH]c(=O)cc(C)c3c1C(C)(OC)O2 (racemic) [Compound 108, (±)-5,10-Dimethoxy-4,5-dimethyl-1H,5H-6-oxa-1-azachrysen-2-one]	> 50	
COc1c(O)ccc2c1-c1ccc3[nH]c(=O)cc(C)c3c1CO2 [Compound 119, 9-Hydroxy-10-methoxy-4-methyl-1H,5H-6-oxa-1-aza-chrysen-2-one]	< 10	
COc1cccc2c1-c1ccc3[nH]c(=O)cc(C(F)(F)F)c3c1OC2 [Compound 127, 10-Methoxy-4-trifluoromethyl-1,6-dihydro-5-oxa-1-azachrysen-2-one]		10 to 50
COc1c(O)ccc2oc(=O)c3c(ccc4[nH]c(=O)cc(C)c43)c12 [Compound 117, 9-Hydroxy-10-methoxy-4-methyl-1H-6-oxa-1-aza-chrysene-2,5-dione]	< 10	
COc1ccc2oc(=O)c3c(ccc4[nH]c(=O)cc(C)c43)c2c1 [Compound 103, 9-Methoxy-4-methyl-1H-6-oxa-1-aza-chrysene-2,5-dione]	> 50	
COc1cccc2c1-c1ccc3[nH]c(=O)cc(C(F)(F)F)c3c1C(O)O2 (racemic) [Compound 114, (±)-5-Hydroxy-10-methoxy-4-trifluoromethyl-1H,5H-6-oxa-1-aza-chrysen-2-one]		> 50
COc1cccc2c1-c1ccc3[nH]c(=O)cc(C(F)(F)F)c3c1CO2 [Compound 113]		10 to 50
Cc1c([N+](=O)[O-])ccc2c1c(=O)oc1cccc(O)c12 [Compound 129, 1-Hydroxy-7-methyl-8-nitrobenzo[c]coumarin]	< 10	
O=c1cc(C(F)(F)F)c2c3c(ccc2[nH]1)-c1c(O)cccc1OC3 [Compound 115, 10-Hydroxy-4-trifluoromethyl-1H,5H-6-oxa-1-aza-chrysen-2-one]		< 10
COc1cccc2c(=O)oc3c(ccc4[nH]c(=O)cc(C(F)(F)F)c43)c12 [Compound 126, 10-Methoxy-4-trifluoromethyl-1H-5-oxa-1-azachrysene-2,6-dione]		10 to 50
CCOc1ccc2oc(=O)c3c(ccc4[nH]c(=O)cc(C)c43)c2c1OC [Compound 121, 9-Ethoxy-10-methoxy-4-methyl-1H-6-oxa-1-aza-chrysene-2,5-dione]	> 50	
CC(C)(C)C(=O)Oc1cccc2c1-c1ccc3[nH]c(=O)cc(C(F)(F)F)c3c1CO2 [Compound 116, 2,2-Dimethyl-propionic acid 2-oxo-4-trifluoromethyl-2,5-dihydro-1H-6-oxa-1-aza-chrysen-10-yl ester]		< 10
COc1c(OC(=O)C(C)(C)C)ccc2oc(=O)c3c(ccc4[nH]c(=O)cc(C)c43)c12 [Compound 102, 2,2-Dimethylpropionic acid 10-methoxy-4-methyl-2,5-dioxo-2,5-dihydro-1H-6-oxa-1-aza-chrysen-9-yl ester]		10 to 50
COC(=O)c1cccc2oc(=O)c3c(ccc4[nH]c(=O)cc(C)c43)c12 [Compound 111, 4-Methyl-2,5-dioxo-2,5-dihydro-1H-6-oxa-1-aza-chrysene-10-carboxylic acid methyl ester]	> 50	
COc1c(O)ccc2c1-c1ccc3[nH]c(=O)cc(C)c3c1C(OC)O2 (racemic) [Compound 118, (±)-9-Hydroxy-5,10-dimethoxy-4-methyl-1H,5H-6-oxa-1-aza-chrysen-2-one]	> 50	
CCOc1ccc2oc(=O)c3c(ccc4c3c(C)cc(=O)n4CC)c2c1OC [Compound 122, 9-Ethoxy-1-ethyl-10-methoxy-4-methyl-1H-6-oxa-1-aza-chrysene-2,5-dione]	> 50	
COc1cccc2oc(=O)c3c(C)c([N+](=O)[O-])ccc3c12 [Compound 130, 1-Methoxy-7-methyl-8-nitrobenzo[c]coumarin]	> 50	
COc1cccc2c1-c1ccc3[nH]c(=O)cc(C)c3c1C(O)O2 (racemic) [Compound 105, (±)-5-Hydroxy-10-methoxy-4-methyl-1H,5H-6-oxa-1-aza-chrysen-2-one]	> 50	
COc1c(OC(C)C)ccc2oc(=O)c3c(ccc4[nH]c(=O)cc(C)c43)c12 [Compound 120, 9-Isopropoxy-10-methoxy-4-methyl-1H-6-oxa-1-aza-chrysene-2,5-dione]	10 to 50	
COc1cccc2c1-c1ccc3[nH]c(=O)cc(C)c3c1C(C)O2 (racemic) [Compound 107, (±)-10-Methoxy-4,5-dimethyl-1H,5H-6-oxa-1-aza-chrysen-2-one]		> 50
Cc1cc(=O)[nH]c2ccc3c4c(CO)cccc4oc(=O)c3c12 [Compound 124, 10-Hydroxymethyl-4-methyl-1H-6-oxa-1-aza-chrysene-2,5-dione]		10 to 50
Cc1cc(=O)[nH]c2ccc3c4c(OC(=O)C(C)(C)C)cccc4oc(=O)c3c12 [Compound 104, 2,2-Dimethylpropionic acid 4-methyl-2,5-dioxo-2,5-dihydro-1H-6-oxa-1-aza-chrysen-10-yl ester]	< 10	
